Assay results from PMC2241828, “Amyloglucosidase enzymatic reactivity inside lipid vesicles” (Journal of Biological Engineering, 2007).

Molecular target: T1, amyloglucosidase (AMG), EC 3.2.1.3 (Aspergillus niger, UniProt P69328)
T1 construct: gene GLAA; commercial enzyme solution (Sigma A-3042), diluted with water
Test: initial rates plus fit of glucose-time curves (HPLC, starch-iodine) to Michaelis-Menten model with product inhibition
Assay type: biochemical
Conditions: free enzyme; soluble starch as substrate; pH 4.5, 55 °C; competitive product inhibition (assumed model); read-out: Ki (mg mL^-1) (converted)

T1 sequence (P69328 25-640): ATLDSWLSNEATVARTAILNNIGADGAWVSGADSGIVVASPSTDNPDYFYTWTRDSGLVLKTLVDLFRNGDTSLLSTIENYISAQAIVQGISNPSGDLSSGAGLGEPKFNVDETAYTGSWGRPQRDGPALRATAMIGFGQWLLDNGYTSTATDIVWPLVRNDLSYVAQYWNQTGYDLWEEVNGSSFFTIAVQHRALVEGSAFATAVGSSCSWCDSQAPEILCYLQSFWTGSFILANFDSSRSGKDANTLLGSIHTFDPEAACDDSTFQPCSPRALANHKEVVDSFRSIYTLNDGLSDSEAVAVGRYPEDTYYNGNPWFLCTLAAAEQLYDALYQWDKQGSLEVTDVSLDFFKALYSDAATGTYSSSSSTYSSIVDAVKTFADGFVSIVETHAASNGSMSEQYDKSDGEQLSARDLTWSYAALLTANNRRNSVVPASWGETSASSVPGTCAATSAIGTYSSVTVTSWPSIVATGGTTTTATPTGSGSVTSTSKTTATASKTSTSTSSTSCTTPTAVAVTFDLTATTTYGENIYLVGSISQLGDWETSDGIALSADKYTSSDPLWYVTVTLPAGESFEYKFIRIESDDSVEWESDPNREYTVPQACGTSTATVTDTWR

OC[C@H]1OC(O)[C@H](O)[C@@H](O)[C@@H]1O (stereo partly shown) [glucose]
Ki: 555 µM
